According to PubChem BioAssay AID489040 (Sanford-Burnham Center for Chemical Genomics, 2010):
Active and inactive are the calls of the source.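 The calls were made as follows: active = mean half-maximal activating concentration from the dose-response fit at or below a set limit; inactive = the rest.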

What follows are molecules tested against CHO-XBP1 luciferase reporter, IRE1-XBP1 UPR activation (assay: activators of IRE1-XBP1 UPR arm, dose response, counter-screen for apoptotic UPR arm activators, CHO-XBP1 cells, luminescence (AID 489040);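 also: reporter read after six hours of compound exposure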).

| SMILES | EC50 |
| --- | --- |
| N#C/C(=C\c1ccc([N+](=O)[O-])o1)C(=O)Nc1ccc(F)cc1 | > 80 µM (inactive) |
| Cc1ccc(NC(=O)COc2ccc(/C=C3/SC(=Nc4ccccc4)N(Cc4cccnc4)C3=O)cc2)cc1 | inactive |
| CCOc1ccc(N2C(=O)/C(=C\c3cccs3)C(=O)NC2=S)cc1 | > 80 µM (inactive) |
| S=C1SCN(Cc2ccco2)CN1Cc1ccco1 | > 80 µM (inactive) |
| O=C(CSc1ccccn1)Nc1nonc1[N+](=O)[O-] | > 80 µM (inactive) |
| CCOC(=O)N1CCN(Cc2cc(Cl)c3cccnc3c2O)CC1 | > 80 µM (inactive) |
| Cc1cccc(C)c1NC(=O)c1nc(S(=O)(=O)Cc2ccccc2)ncc1Cl | > 80 µM (inactive) |
| CCCCOc1ccc(N2C(=O)CC(N(O)c3ccccc3)C2=O)cc1 (stereo not drawn) | > 80 µM (inactive) |
| COC(=O)c1c(NC(=O)CC2Nc3ccccc3NC2=O)sc(C)c1C (stereo not drawn) | > 80 µM (inactive) |
| Cn1c(-c2cccc(OCc3ccccc3)c2)nc2c1c(=O)[nH]c(=O)n2Cc1ccccc1 | > 80 µM (inactive) |
| Cc1cc(C(=O)CCl)c(C)n1CCc1ccc(Cl)cc1 | > 80 µM (inactive) |
| O=C(/C=C/c1ccc(O)c(O)c1)OCCc1ccccc1 | > 80 µM (inactive) |
| O=C(CSc1nc2ccc(Nc3nc(N4CCOCC4)nc(N4CCOCC4)n3)cc2s1)Nc1ccccc1F | 5.61 µM |
| Cc1ccc(Nc2nc(-c3ccc(O)c(O)c3)cs2)nc1 | > 80 µM (inactive) |
| COc1cccc(N=Nc2ccc3cccnc3c2O)c1 | > 80 µM (inactive) |
| CCc1cc2c(=O)c(-c3cnn(-c4ccccc4)c3)c(C)oc2cc1OCC(=O)Nc1cccc(C)c1 | inactive |
| CN(C)CC(C(=O)c1ccccc1)c1ccccc1 (stereo not drawn) | > 80 µM (inactive) |
| CCOc1ccccc1-n1c(SCC(=O)Nc2ccc(CC)cc2)nc2n[nH]c(C)c2c1=N | 7.99 µM |
| Oc1ccc(-c2csc(-c3ccccc3)n2)cc1O | > 80 µM (inactive) |
| Oc1c(CN2CCCCC2)cc(Br)c2cccnc12 | > 80 µM (inactive) |
| O=C1C(CSCc2ccccc2)NC(=S)N1c1ccccc1 (stereo not drawn) | > 80 µM (inactive) |
| CCOC(=O)c1c(NC(C)=O)sc2c1CCC(C=O)=C2Sc1ccccc1 | > 80 µM (inactive) |
| COc1ccc(C2=CC(=O)N(Nc3ccccc3)C2=O)cc1 | > 80 µM (inactive) |
| OCCNc1nc(Nc2ccc(Br)cc2)nc2ccccc12 | 5.17 µM |
| O=C1NC(=O)N(CCc2ccc(F)cc2)C(=O)/C1=C/C=C/c1ccccc1 | > 80 µM (inactive) |

| SMILES | EC50 |
| --- | --- |
| COc1ccc(C(=O)C(CN2CCOCC2)c2ccccc2)cc1 (stereo not drawn) | > 80 µM (inactive) |
| Cc1ccc(C)c2sc(N3CCN(C(=O)c4ccc([N+](=O)[O-])o4)CC3)nc12 | > 80 µM (inactive) |
| O=C(Oc1ccccc1/C=C\C(=O)c1cc2ccccc2o1)c1ccccc1 | > 80 µM (inactive) |
| COc1ccccc1N=c1oc2c(OC)cccc2cc1C(=O)NCc1ccco1 | inactive |
| COC(=O)C1=C(C)N(c2ccc(C)c(C)c2)/C(=C/c2ccco2)C1=O | > 80 µM (inactive) |
| COc1ccc(CC2=CC(=O)c3ccccc3C2=O)cc1 | > 80 µM (inactive) |
| O=C(C[C@H]1C[C@H](C(=O)N2CCCCC2)[C@@]2(CCc3ccccc3)c3[nH]c4ccc(Cl)cc4c3CCN2C1=O)NCCC1=CCCCC1 | inactive |
| Nc1nc(CC(=O)CSc2ccc(Cl)cc2)nc(Nc2ccc(F)cc2)n1 | > 80 µM (inactive) |
| CN(C)CC(CCC(CN(C)C)C(O)(c1ccccc1)c1ccccc1)C(O)(c1ccccc1)c1ccccc1 (stereo not drawn) | > 80 µM (inactive) |
| O=C(Nc1ccc(-c2nc3ncccc3o2)cc1)c1ccc([N+](=O)[O-])o1 | > 80 µM (inactive) |
| C=C1C(=O)C=C[C@]2(C)C[C@@H]3OC(=O)[C@](C)(O)[C@H]3C[C@@H]12 | > 80 µM (inactive) |
| CC(=O)N(\C=C/C=C/C=C1\Sc2ccccc2C1=O)c1ccccc1 | > 80 µM (inactive) |
| CCc1ccc(NC(=O)C(CC)Sc2nc3cc4c(cc3c(=O)n2Cc2ccco2)OCO4)cc1 (stereo not drawn) | > 80 µM (inactive) |
| Oc1c(Cl)cc(CN2CCOCC2)c2cccnc12 | > 80 µM (inactive) |
| O=C(Nc1ccc2oc(-c3ccc4ccccc4c3)nc2c1)c1ccc2c(c1)OCCO2 | inactive |
| Cc1ccc(S(=O)(=O)Nc2cccc3cccnc23)cc1 | > 80 µM (inactive) |
| O=S(=O)(Nc1cccc2cccnc12)c1ccccc1 | > 80 µM (inactive) |
| COc1ccc(-c2oc(NC(=O)CCl)c(C#N)c2-c2ccc(OC)cc2)cc1 | > 80 µM (inactive) |
| COC(=O)c1cc(=O)n(Cc2ccc3c(c2)OCO3)c(=Nc2ccc(F)c(Cl)c2)s1 | > 80 µM (inactive) |
| COc1ccc(CCN2CCC(Nc3nc4ccccc4n3Cc3ccc(F)cc3)CC2)cc1 | > 80 µM (inactive) |
| CCOC(=O)c1sc(N(Cc2ccccc2)C(=O)CCl)nc1C | 8.65 µM |
| Cc1ccc(Sc2ccc(/C=C3/C(=O)NN(c4ccccc4)C3=O)o2)cc1 | > 80 µM (inactive) |
| COc1cc2nc(=S)n3[nH]c(CCn4nc(C)cc4C)nc3c2cc1OC | > 80 µM (inactive) |
| COc1cc(C(Nc2ccccn2)c2ccc3ccc(C)nc3c2O)cc(OC)c1O (stereo not drawn) | > 80 µM (inactive) |
| Cc1ccc(-c2nc(NC(=O)c3nn(C)cc3[N+](=O)[O-])sc2C)cc1C | > 80 µM (inactive) |

| SMILES | EC50 |
| --- | --- |
| COc1ccccc1-c1nnc(Nc2nc3c(OC)cccc3s2)o1 | > 80 µM (inactive) |
| CCCOc1ccc(N2C(=O)CC(N(O)c3ccccc3)C2=O)cc1 (stereo not drawn) | > 80 µM (inactive) |
| S=c1[nH]nc(-c2cc(-c3ccccc3)n[nH]2)n1/N=C/C(Br)=C/c1ccccc1 | > 80 µM (inactive) |
| COc1ccc(C2c3ccc4ccccc4c3Oc3ncn(CCCN(C)C)c(=N)c32)cc1 (stereo not drawn) | > 80 µM (inactive) |
| O=C(Nc1nc(-c2ccccn2)cs1)c1ccc(Cl)s1 | inactive |
| Cc1ccc(-c2nc(N/N=C/c3cccc([N+](=O)[O-])c3)c3ccccc3n2)cc1 | > 80 µM (inactive) |
| CC1CCC/C=C/C(=O)c2c(O)cc(O)cc2CC(=O)O1 (stereo not drawn) | > 80 µM (inactive) |
| COCCN1CSC(=S)N(Cc2ccco2)C1 | > 80 µM (inactive) |
| CSc1nnc(NC(=O)c2nc(S(=O)(=O)Cc3ccccc3F)ncc2Cl)s1 | > 80 µM (inactive) |
| O=c1c2ccccc2nc(/C=C/c2ccc([N+](=O)[O-])o2)n1-c1ccc(O)cc1 | > 80 µM (inactive) |
| COc1ccccc1C(=O)NC(=S)NNC(=O)c1sc2ccccc2c1Cl | inactive |
| CC1(C)CC(=O)C2=C(C1)Oc1nc3ccccc3cc1C2C(C#N)C#N (stereo not drawn) | > 80 µM (inactive) |
| CCCCNC1C(CC)C(CCC)C(C#N)(C#N)C1(C#N)C#N (stereo not drawn) | > 80 µM (inactive) |
| O=S(=O)(CCSc1nc2ccccc2s1)c1nc2ccccc2s1 | > 80 µM (inactive) |
| CC1CCCCC1N1CN=C(Nc2nc3ccccc3s2)NC1 (stereo not drawn) | > 80 µM (inactive) |
| CC(C)CNC(=O)c1coc(=O)c(Br)c1 | > 80 µM (inactive) |
| O=C(Nc1cccc(S(=O)(=O)N2CCCCC2)c1)c1ccc([N+](=O)[O-])o1 | > 80 µM (inactive) |
| CC1CCC/C=C/C2CC(O)CC2C(O)/C=C/C(=O)O1 (stereo not drawn) | > 80 µM (inactive) |
| CCc1nc(N=Nc2c(O)[nH]c3ccccc23)c2c3c(sc2n1)CCC3 | inactive |
| COc1cc([N+](=O)[O-])cc(/C=N/NC(=O)c2ccc(NC(=O)c3ccc(C)cc3)cc2)c1O | > 80 µM (inactive) |
| COc1c(Cl)cc(Cl)cc1/C=C/C(=O)c1ccc(NC(=O)c2cccs2)cc1 | > 80 µM (inactive) |
| CSc1nnc(NC(=O)c2nc(S(=O)(=O)Cc3ccccc3)ncc2Cl)s1 | > 80 µM (inactive) |
| O=C(Cn1cc(/C=C\[N+](=O)[O-])c2ccccc21)Nc1ccccc1 | > 80 µM (inactive) |
| COc1ccc(/C=N/Nc2cc(C)nc(-n3nc(C)cc3C)n2)cc1 | > 80 µM (inactive) |
| Cc1ccccc1NC(=O)c1ccc(N/N=C/c2ccccc2O)c([N+](=O)[O-])c1 | > 80 µM (inactive) |

| SMILES | EC50 |
| --- | --- |
| CCOc1cc(/C=N/NC(N)=S)cc(Br)c1OCc1ccccc1C | > 80 µM (inactive) |
| CC(C)N=c1scc(-c2cccs2)n1/N=C/c1ccc(O)c(O)c1O | > 80 µM (inactive) |
| Fc1ccc(NC(=S)Nc2nccs2)cc1 | > 80 µM (inactive) |
| CCOc1ccccc1N=Cc1c(O)c2ccccc2oc1=O | 10.8 µM |
| CCCN1Cc2cccc(C(=O)Nc3ccc(-c4nc5ccccc5[nH]4)cc3)c2C1=O | > 80 µM (inactive) |
| Cc1ccc(CS(=O)(=O)c2ncc(Cl)c(C(=O)Nc3ccc(OC(F)F)cc3)n2)cc1 | > 80 µM (inactive) |
| O=[N+]([O-])c1ccc(C=Nc2ccc(Cl)cc2Cl)s1 | > 80 µM (inactive) |
| CCCCC(CC)CN=C(N)NC(N)=NCCCCCCN=C(N)NC(N)=NCC(CC)CCCC (stereo not drawn) | > 80 µM (inactive) |
| CCOC(=O)/C=c1\s/c(=C\c2ccc3cc(OC)ccc3c2)c(=O)n1CC(=O)NCC1CCCO1 (stereo not drawn) | 17.4 µM |
| Oc1c(CN2CCc3ccccc3C2)cc(Cl)c2cccnc12 | > 80 µM (inactive) |
| CCSC1(SCC)N=C(N)C2(C#N)C(c3ccc(F)cc3)C12C#N (stereo not drawn) | > 80 µM (inactive) |
| COC(=O)c1ccc(-n2c(C)cc(C(=O)CCl)c2C)cc1 | 9.06 µM |
| O=C(Nc1cccc(-c2nc3cccnc3s2)c1)C1c2ccccc2Oc2ccccc21 | 5.58 µM |
| COc1ccc(/C=C/C(=O)c2ccc([N+](=O)[O-])o2)cc1 | > 80 µM (inactive) |
| Cc1ccc(CN2CCN(/N=C/c3ccc(O)c(O)c3)CC2)cc1 | > 80 µM (inactive) |
| CCOc1cc(/C=C2/C(=O)ON=C2C)ccc1OCc1ccccc1F | > 80 µM (inactive) |
| O=C(C=C=Nc1ccccc1)C(=O)N=C=Cc1ccccc1 | > 80 µM (inactive) |
| O=C(N/N=C/c1ccc(O)c(O)c1)NC12CC3CC(CC(C3)C1)C2 | 14.2 µM |
| Cc1ccc(C(=O)Cn2c(C(=O)/C=C/c3ccccc3)nc3ccccc32)cc1 | 18.3 µM |
| C=CCN=c1scc(C)n1/N=C/c1ccc(O)c(O)c1 | 17.4 µM |
| CCCCCCCCCn1c2c(c(=N)c3c1CCC3)CCC2 | > 80 µM (inactive) |
| CCCn1c(CC)nc([N+](=O)[O-])c1S(=O)(=O)c1ccccc1 | > 80 µM (inactive) |
| Cc1ccc(CS(=O)(=O)c2ncc(Cl)c(C(=O)Nc3nnc(C(C)C)s3)n2)cc1 | > 80 µM (inactive) |
